± gives the expanded uncertainty stated by the source.
Details: 298.15 K; 101.33 kPa; Liquid

SMILES | mass density [kg/m3]
CCCCCCCCCCCC [dodecane] | 745.41 ± 0.78
CC1=CC[C@H]2C[C@@H]1C2(C)C [(S)-2-pinene] | 853.88 ± 0.63
CO [methanol] | 786.62 ± 0.31
C=C1CC[C@H]2C[C@@H]1C2(C)C [(1S,5S)-6,6-dimethyl-2-methylenebicyclo[3.1.1]heptane] | 866.84 ± 0.62
C=C(C)[C@H]1CC=C(C)CC1 [(R)-1-methyl-4-(1-methylethenyl)cyclohexene] | 837.31 ± 1.3
Cc1ccccc1 [toluene] | 862.35 ± 0.24
